Data as given in ChEMBL document CHEMBL1128945, “Peptide inhibitors of IKB protease: Modification of the C-termini of Z-LLF-CHO” (Bioorg Med Chem Lett, 1996).
pIC50: −log10 of the molar value. Square brackets hold non-standard residues; d marks the D form. Peptide text beside a SMILES is read from it. * marks the point of attachment. 1Nal = N[C@@H](Cc1cccc2ccccc12)C(=O)O; 2Nal = N[C@@H](Cc1ccc2ccccc2c1)C(=O)O; Cbz = O=C(OCc1ccccc1)*

How the values were obtained:
[1] = Compound was evaluated for its ability to inhibit activation of NFkB protease stably expressed in human Jurkat T-cells; assay type: cell-based
Jurkat [2] = test: Ability to decrease IL-2 levels in human Jurkat T-cells; assay type: functional, cell-based
Jurkat [3] = test: Ability to decrease IL-8 levels in human Jurkat T-cells; assay type: functional, cell-based

Row | Compound | pIC50 [1] | pIC50 (Jurkat [2]) | pIC50 (Jurkat [3])
1 | CC(C)C[C@H](NC(=O)OCc1ccccc1)C(=O)N[C@@H](CC(C)C)C(=O)N[C@@H](Cc1ccccc1)C(=O)C(F)(F)C(F)(F)F | < 4.52 | – | –
2 | CC(C)C[C@H](NC(=O)OCc1ccccc1)C(=O)N[C@@H](CC(C)C)C(=O)N[C@@H](Cc1ccccc1)C(=O)Nc1ccc(C(F)(F)F)cc1 | < 4.52 | – | –
3 | CC(=O)c1cccc(NC(=O)[C@H](CC(C)C)NC(=O)[C@H](CC(C)C)NC(=O)OCc2ccccc2)c1 | < 5.00 | – | –
4 | CC(=O)[C@H](Cc1ccccc1)NC(=O)[C@H](CC(C)C)NC(=O)[C@H](CC(C)C)NC(=O)OCc1ccccc1 | < 4.52 | – | –
5 | CON(C)C(=O)[C@H](Cc1ccccc1)NC(=O)[C@H](CC(C)C)NC(=O)[C@H](CC(C)C)NC(=O)OCc1ccccc1 (stereo in doubt; 4b(D)) | < 4.52 | – | –

Continued by rising pIC50 [1], values first:

Row | pIC50 [1] | pIC50 (Jurkat [2]) | pIC50 (Jurkat [3]) | Compound
6 | 4.70 | – | – | CC(C)C[C@H](NC(=O)OCc1ccccc1)C(=O)N[C@@H](CC(C)C)C(=O)N[C@@H](Cc1ccccc1)C(=O)C(=O)C(=O)OCc1ccccc1
7 | 4.74 | – | – | CON(C)C(=O)[C@H](Cc1ccccc1)NC(=O)[C@H](CC(C)C)NC(=O)[C@H](CC(C)C)NC(=O)OCc1ccccc1 (stereo in doubt; 4a(L))
8 | 5.52 | – | – | CC(C)C[C@H](NC(=O)[C@H](Cc1cccc2ccccc12)NC(=O)[C@H](Cc1ccc2ccccc2c1)NC(=O)OCc1ccccc1)C(=O)O (Cbz-[2Nal]-[1Nal]-Leu-OH)
9 | 5.70 | 6.05 | 5.70 | CC(C)CC(NC(=O)OCc1ccccc1)C(=O)NC(CC(C)C)C(=O)NC(C=O)Cc1ccccc1 (stereo not drawn) (Cbz-Leu-Leu-Phe-aldehyde; configuration not given here)
